In PubChem BioAssay AID222 (DTP/NCI, 2004):
Several values for one entry are separate records, joined by “and”; a condition that tells them apart may be missing. Equal entries are not always repeated. Toxic doses and inconclusive results are not listed.

Tested on: C57BL/6 mice, intracerebral ependymoblastoma, median survival T/C
Assay: NCI In Vivo Anticancer Drug Screen. Data for tumor model Ependymoblastoma (intracerebral) in C57BL/6 mice
Settings: endpoint: median survival time, higher = longer survival
Method: The antitumor activity of compounds was measured in mice bearing transplantable tumors. Survival or tumor size were measured and the results are expressed as the measurement made in the treated group (T) divided by the measurement made in the vehicle treated control group (C). The tumor model used in this assay is Ependymoblastoma (intracerebral) in C57BL/6 mice

CC(=O)OC(C1CO1)C(OC(C)=O)C1CO1 (centres undefined)
T/C (dose: 5.0 mg/kg/injection, schedule: Q01DX005 (ip), vehicle: saline): 301 % of control
T/C (dose: 6.0 mg/kg/injection, schedule: Q01DX005 (ip), vehicle: saline): 365 % of control
T/C (dose: 7.0 mg/kg/injection, schedule: Q01DX005 (oral), vehicle: saline): 253 % of control
T/C (dose: 10.0 mg/kg/injection, schedule: Q01DX005 (ip), vehicle: saline): 301 % of control
T/C (dose: 12.0 mg/kg/injection, schedule: Q01DX005 (ip), vehicle: saline): 365 % of control
T/C (dose: 14.0 mg/kg/injection, schedule: Q01DX005 (oral), vehicle: saline): 365 % of control

NC(=O)N(CCCl)N=O
T/C (dose: 0.5 mg/kg/injection, schedule: Q01DX005 (ip), vehicle: saline + alcohol): 118 % of control
T/C (dose: 2.0 mg/kg/injection, schedule: Q01DX005 (ip), vehicle: saline + alcohol): 276 % of control

COc1ccc2c(c1OC(C)=O)-c1cc(O)cc3c1C(C2)N(C(=O)CN(CCCl)CCCl)CC3 (centres undefined)
T/C (dose: 12.5 mg/kg/injection, schedule: Q04DX003 (ip), vehicle: saline): 94 % of control
T/C (dose: 25.0 mg/kg/injection, schedule: Q04DX003 (ip), vehicle: saline): 99 % of control
T/C (dose: 50.0 mg/kg/injection, schedule: Q04DX003 (ip), vehicle: saline): 86 % of control

CC[C@]12CN3CCc4c([nH]c5ccccc45)[C@@](C(=O)OC)(c4cc5c(cc4OC)N(C)[C@H]4[C@@](O)(C(=O)OC)[C@H](OC(C)=O)[C@]6(CC)C=CCN7CC[C@]54[C@@H]76)CC(C3)[C@H]1O2 (some centres undefined)
T/C (dose: 0.05 mg/kg/injection, schedule: Q01DX005 (ip), vehicle: saline): 94 % of control
T/C (dose: 0.1 mg/kg/injection, schedule: Q01DX005 (ip), vehicle: saline): 93 % of control
T/C (dose: 0.2 mg/kg/injection, schedule: Q01DX005 (ip), vehicle: saline): 93 % of control
T/C (dose: 0.4 mg/kg/injection, schedule: Q01DX005 (ip), vehicle: saline): 108 % of control
T/C (dose: 0.8 mg/kg/injection, schedule: Q01DX005 (ip), vehicle: saline): 103 % of control
T/C (dose: 1.6 mg/kg/injection, schedule: Q01DX005 (ip), vehicle: saline): 103 % of control
T/C (dose: 3.2 mg/kg/injection, schedule: Q01DX005 (ip), vehicle: saline): 113 % of control
T/C (dose: 6.4 mg/kg/injection, schedule: Q01DX005 (ip), vehicle: saline): 103 % of control
T/C (dose: 12.8 mg/kg/injection, schedule: Q01DX005 (ip), vehicle: saline): 103 % of control

O=NN(CCCl)C(=O)NCCCl
T/C (dose: 0.12 mg/kg/injection, schedule: Q03HX032 (ip), vehicle: saline): 113 % of control and 291 % of control
T/C (dose: 0.25 mg/kg/injection, schedule: Q03HX032 (ip), vehicle: saline): 291 % of control
T/C (dose: 0.5 mg/kg/injection, schedule: Q03HX008 (ip), vehicle: saline): 110 % of control
T/C (dose: 0.5 mg/kg/injection, schedule: Q03HX032 (ip), vehicle: saline): 169 % of control
T/C (dose: 1.0 mg/kg/injection, schedule: Q01DX005 (ip), vehicle: saline + alcohol): 109 % of control
T/C (dose: 2.0 mg/kg/injection, schedule: Q01DX001 (ip), vehicle: Klucel (hydroxypropylcellulose) (HPC)): 95 % of control and 100 % of control and 111 % of control
T/C (dose: 2.0 mg/kg/injection, schedule: Q01DX005 (ip), vehicle: saline with Tween-80): 113 % of control
T/C (dose: 2.0 mg/kg/injection, schedule: Q03HX008 (ip), vehicle: saline): 103 % of control and 251 % of control
T/C (dose: 2.0 mg/kg/injection, schedule: Q03HX032 (ip), vehicle: saline): 151 % of control and 179 % of control
T/C (dose: 4.0 mg/kg/injection, schedule: Q01DX001 (ip), vehicle: Klucel (hydroxypropylcellulose) (HPC)): 101 % of control and 106 % of control and 120 % of control
T/C (dose: 4.0 mg/kg/injection, schedule: Q01DX001 (oral), vehicle: saline with Tween-80): 97 % of control and 108 % of control
T/C (dose: 4.0 mg/kg/injection, schedule: Q01DX005 (ip), vehicle: alcohol): 106 % of control
T/C (dose: 4.0 mg/kg/injection, schedule: Q03HX008 (ip), vehicle: saline): 178 % of control and 327 % of control
T/C (dose: 4.0 mg/kg/injection, schedule: Q## X006 (ip), vehicle: saline with Tween-80): 159 % of control
T/C (dose: 8.0 mg/kg/injection, schedule: Q01DX001 (ip), vehicle: Klucel (hydroxypropylcellulose) (HPC)): 115 % of control
T/C (dose: 8.0 mg/kg/injection, schedule: Q01DX001 (oral), vehicle: saline with Tween-80): 95 % of control and 102 % of control and 122 % of control
T/C (dose: 8.0 mg/kg/injection, schedule: Q01DX005 (ip), vehicle: saline + alcohol): 361 % of control
T/C (dose: 8.0 mg/kg/injection, schedule: Q03HX008 (ip), vehicle: saline): 96 % of control and 98 % of control
T/C (dose: 8.0 mg/kg/injection, schedule: Q## X006 (ip), vehicle: saline with Tween-80): 219 % of control
T/C (dose: 10.0 mg/kg/injection, schedule: Q01DX001 (ip), vehicle: other): 124 % of control
T/C (dose: 15.0 mg/kg/injection, schedule: Q01DX001 (ip), vehicle: saline with Tween-80): 176 % of control
T/C (dose: 16.0 mg/kg/injection, schedule: Q01DX001 (ip), vehicle: Klucel (hydroxypropylcellulose) (HPC)): 150 % of control and 228 % of control
T/C (dose: 16.0 mg/kg/injection, schedule: Q01DX001 (ip), vehicle: other): 124 % of control
T/C (dose: 16.0 mg/kg/injection, schedule: Q01DX001 (oral), vehicle: saline with Tween-80): 158 % of control
T/C (dose: 16.0 mg/kg/injection, schedule: Q01DX005 (ip), vehicle: saline + alcohol): 96 % of control
T/C (dose: 16.0 mg/kg/injection, schedule: Q08DX002 (ip), vehicle: saline): 207 % of control and 291 % of control
T/C (dose: 20.0 mg/kg/injection, schedule: Q01DX001 (ip), vehicle: other): 164 % of control
T/C (dose: 20.0 mg/kg/injection, schedule: Q01DX001 (oral), vehicle: saline with Tween-80): 195 % of control
T/C (dose: 30.0 mg/kg/injection, schedule: Q01DX001 (ip), vehicle: saline with Tween-80): 212 % of control
T/C (dose: 32.0 mg/kg/injection, schedule: Q01DX001 (ip), vehicle: Klucel (hydroxypropylcellulose) (HPC)): 101 % of control and 217 % of control and 231 % of control
T/C (dose: 32.0 mg/kg/injection, schedule: Q01DX001 (ip), vehicle: other): 219 % of control
T/C (dose: 32.0 mg/kg/injection, schedule: Q01DX001 (oral), vehicle: saline with Tween-80): 108 % of control
T/C (dose: 32.0 mg/kg/injection, schedule: Q04DX004 (ip), vehicle: saline): 111 % of control
T/C (dose: 40.0 mg/kg/injection, schedule: Q01DX001 (ip), vehicle: other): 196 % of control
T/C (dose: 64.0 mg/kg/injection, schedule: Q01DX001 (ip), vehicle: saline with Tween-80): 94 % of control
T/C (dose: 64.0 mg/kg/injection, schedule: Q01DX001 (oral), vehicle: saline with Tween-80): 94 % of control
T/C (dose: 64.0 mg/kg/injection, schedule: Q04DX004 (ip), vehicle: saline): 100 % of control
T/C (dose: 64.0 mg/kg/injection, schedule: Q08DX002 (ip), vehicle: saline): 97 % of control
T/C (dose: 128.0 mg/kg/injection, schedule: Q01DX001 (ip), vehicle: saline with Tween-80): 97 % of control
T/C (dose: 128.0 mg/kg/injection, schedule: Q01DX001 (oral), vehicle: saline with Tween-80): 92 % of control
T/C (dose: 256.0 mg/kg/injection, schedule: Q01DX001 (ip), vehicle: saline with Tween-80): 88 % of control
T/C (dose: 256.0 mg/kg/injection, schedule: Q01DX001 (oral), vehicle: saline with Tween-80): 88 % of control

COC(=O)[C@@]12OC[C@]34[C@H]([C@@H](O)[C@@H]1O)[C@@]1(C)CC(=O)C(O)=C(C)[C@@H]1C[C@H]3OC(=O)[C@H](OC(=O)/C=C(\C)C(C)C)[C@@H]24
T/C (dose: 0.03 mg/kg/injection, schedule: Q01DX005 (ip), vehicle: Klucel (hydroxypropylcellulose) (HPC)): 92 % of control and 110 % of control
T/C (dose: 0.06 mg/kg/injection, schedule: Q01DX005 (ip), vehicle: Klucel (hydroxypropylcellulose) (HPC)): 109 % of control and 116 % of control
T/C (dose: 0.12 mg/kg/injection, schedule: Q01DX005 (ip), vehicle: Klucel (hydroxypropylcellulose) (HPC)): 101 % of control and 107 % of control
T/C (dose: 0.25 mg/kg/injection, schedule: Q01DX005 (ip), vehicle: Klucel (hydroxypropylcellulose) (HPC)): 104 % of control and 109 % of control
T/C (dose: 0.5 mg/kg/injection, schedule: Q01DX005 (ip), vehicle: Klucel (hydroxypropylcellulose) (HPC)): 93 % of control and 117 % of control
T/C (dose: 1.0 mg/kg/injection, schedule: Q01DX005 (ip), vehicle: Klucel (hydroxypropylcellulose) (HPC)): 95 % of control
T/C (dose: 31.2 micrograms/kg/injection, schedule: Q01DX005 (ip), vehicle: saline + alcohol): 86 % of control
T/C (dose: 62.5 micrograms/kg/injection, schedule: Q01DX005 (ip), vehicle: saline + alcohol): 99 % of control
T/C (dose: 125.0 micrograms/kg/injection, schedule: Q01DX005 (ip), vehicle: saline + alcohol): 94 % of control
T/C (dose: 250.0 micrograms/kg/injection, schedule: Q01DX005 (ip), vehicle: saline + alcohol): 108 % of control
T/C (dose: 500.0 micrograms/kg/injection, schedule: Q01DX005 (ip), vehicle: saline + alcohol): 87 % of control
T/C (dose: 1000.0 micrograms/kg/injection, schedule: Q01DX005 (ip), vehicle: saline + alcohol): 99 % of control
